Data on 9 compounds can be found in patent US4015974A, “Amido phosphorothiolates” (priority 1972, dated 1977).

Common to all, as to format: in vivo
The test system of data set [1] is barnyard grass (Echinochloa crus-galli). Nature of the data set: Pre-emergence application, herbicidal effect on barnyard grass (Table 1). On the set-up: key: 0: not damaged; 5: completely killed. The settings on record: 20 days after application, score 0-5. The procedure, abridged: (§1)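 Pre-emergence soil application of wettable powders diluted in water over covered seeds (~10 cm pots). Greenhouse growth; visual 0–5 rating (0 none, 5 dead) at 20 days.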

The test system of data set [2] is large crabgrass (Digitaria sanguinalis). Nature of the data set: Pre-emergence application, herbicidal effect on large crabgrass (Table 1). The settings on record: 20 days after application, score 0-5. On the set-up: key: 0: not damaged; 5: completely killed. The essentials:
as §1

The next data set relates to radish. Description: Pre-emergence application, herbicidal effect on radish (Table 1). On the set-up: key: 0: not damaged; 5: completely killed. Particulars: 20 days after application, score 0-5. The essentials: as §1
The test system of data set [3] is redroot pigweed (Amaranthus retroflexus). Description: Pre-emergence application, herbicidal effect on redroot pigweed (Table 1). On the set-up: key: 0: not damaged; 5: completely killed. Particulars: 20 days after application, score 0-5. The procedure, abridged:
as §1

Data set [4] relates to common purslane (Portulaca oleracea). Description: Pre-emergence application, herbicidal effect on common purslane (Table 1). Particulars: 20 days after application, score 0-5. On the set-up: key: 0: not damaged; 5: completely killed. The procedure, abridged: as §1
Data set [5] relates to common lambsquarter (Chenopodium album). Nature of the data set: Pre-emergence application, herbicidal effect on common lambsquarter (Table 1). On the set-up: key: 0: not damaged; 5: completely killed. Particulars: 20 days after application, score 0-5. The essentials: as §1
The next data set concerns rice. Nature of the data set: Water application, phytotoxicity on rice (Table 2). On the set-up: key: 0: no effect; 1: very slightly affected; 2: slightly affected; 3: moderately affected; 4: considerably affected; 5: completely killed. The settings on record: 25 days, score 0-5. The essentials:
(§2)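 Under water-lodged conditions, wettable-powder test compounds are applied to paddy soil carrying transplanted rice (3-leaf) and sown barnyard grass. Activity on these and on spontaneously emerged broad-leaved weeds is graded 0 to 5 twenty-five days later.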

For data set [6], the system named is barnyard grass (Echinochloa crus-galli). Nature of the data set: Water application, herbicidal effect on barnyard grass (Table 2). On the set-up: key: 0: not damaged; 5: completely killed. Particulars: 25 days, score 0-5. The essentials: as §2
The test system of data set [7] is broad-leaved weeds, e.g., monochoria, false pimpernel and toothcup. Nature of the data set: Water application, herbicidal effect on broad-leaved weeds (Table 2). On the set-up: key: 0: not damaged; 5: completely killed. Particulars: 25 days, score 0-5. The essentials:
as §2

Data set [8] shares this test system. Described as above. The settings on record: 10 g/a, 25 days, score 0-5. On the set-up: key: 0: no effect; 1: very slightly affected; 2: slightly affected; 3: moderately affected; 4: considerably affected; 5: completely killed. An excerpt: Wagner pots of 14 cm. in diameter, which had been packed with 1.5 kg. of paddy field soil, were brought into the state of paddy fields. To the pots were transplanted rice seedlings at the 3-leave stage. Further, seeds of barnyard grass (Echinochloa crus-galli) were sowed in the pots and required amounts of test compounds were applied to the soil under water lodged condition. 25 days after application, the degrees of herbicidal activity and phytotoxity were investigated on above-mentioned plants which had been transplanted and sowed, and on broad-leaved weeds, e.g., monochoria (Monochoria viaginalis Presl.), false pimpernel (Linderna pyxidaria) and toothcup (Rotala indica Koehue), which had been spontaneously germinated. The test compounds were used in the form of wettable powder. The herbicidal effects and the phytotoxity were evaluated as follows by the numerals ranging from 0 to 5.

The test system of the next data set is nematode. Description: Effect on nematode (Table 7). On the set-up: tested at 500 ppm. The settings on record: 500 p.p.m., 24 hours. How it is done: 0.5 ml. of a nematode-containing aqueous solution separated from food according to Baermann's method was placed in a test tube with ground stopper containing 0.5 ml. of an aqueous dilute solution of each emulsifiable concentrates of the present compounds. The concentration of the active ingredient in the mixture was adjusted to 500 p.p.m. After 24 hours, the death and alive were observed microscopically to calculate the mortality.

Consider `CCCCCCCCSP(=O)(OCC)SCC(=O)N1CCCCC1C` (stereo not drawn) [Compound 8], for which the “Herbicidal effect, barnyard grass” value is reported as 4 in data set [1] (10 g./a.), 4 in data set [1] (20 g./a.) and 5 in data set [1] (40 g./a.). Moreover, the “Herbicidal effect, large crabgrass” value in data set [2] (10 g./a.) is 4; in data set [2] (20 g./a.), 4; in data set [2] (40 g./a.), 5. For the same compound, the “Herbicidal effect, radish” value with radish (10 g./a.), with radish (20 g./a.) and with radish (40 g./a.) was 0 each time. Also, the figures for the “Herbicidal effect, redroot pigweed” value in [3] (10 g./a.), in data set [3] (20 g./a.) and in data set [3] (40 g./a.) were 3, 4 and 4, respectively. Also, the “Herbicidal effect, common purslane” value in data set [4] (10 g./a.), in data set [4] (20 g./a.) and in data set [4] (40 g./a.) was 4 each time. Besides, the “Herbicidal effect, common lambsquarter” value in [5] (10 g./a.) is 3; in data set [5] (20 g./a.), 4; in data set [5] (40 g./a.) it was 4. The Phytotoxicity on rice in the data set on rice (10 g/a), in the data set with rice (20 g/a) and with rice (40 g/a) was 0 in each case. Besides, the “Herbicidal effects, barnyard grass” value in data set [6] (10 g/a), in [6] (20 g/a) and in data set [6] (40 g/a) was 5 in each case. The “Herbicidal effects, broad-leaved weeds” value in data set [7] (20 g/a) worked out at 5; in [7] (40 g/a), 5; in [8], 4.

`CCCSP(=O)(OCC)SCC(=O)N1CCC(C)CC1` (stereo not drawn) [Compound 12]: the “Herbicidal effect, barnyard grass” value in [1] (10 g./a.), in data set [1] (20 g./a.) and in [1] (40 g./a.) was 5 each time. Moreover, the “Herbicidal effect, large crabgrass” value in data set [2] (10 g./a.), in data set [2] (20 g./a.) and in [2] (40 g./a.) was 5 each time. Besides, the “Herbicidal effect, radish” value in the data set with radish (10 g./a.), in the data set with radish (20 g./a.) and in the data set with radish (40 g./a.) was 0 in each case. The “Herbicidal effect, redroot pigweed” value in [3] (10 g./a.) was 4; in data set [3] (20 g./a.), 5; in [3] (40 g./a.), 5. The “Herbicidal effect, common purslane” value in data set [4] (10 g./a.), in data set [4] (20 g./a.) and in data set [4] (40 g./a.) was 5 throughout. In addition, the “Herbicidal effect, common lambsquarter” value in data set [5] (10 g./a.), in data set [5] (20 g./a.) and in [5] (40 g./a.) was 5 each time. Besides, the Phytotoxicity on rice in the data set on rice (10 g/a), in the data set on rice (20 g/a) and in the data set with rice (40 g/a) was 0 each time. Further, in the data set on nematode, the Mortality came to 100%. The “Herbicidal effects, barnyard grass” value in data set [6] (10 g/a), in data set [6] (20 g/a) and in [6] (40 g/a) was 5 each time. In addition, the “Herbicidal effects, broad-leaved weeds” value in [7] (10 g/a), in data set [7] (20 g/a) and in data set [7] (40 g/a) was 5 in each case.

For the compound `CCOP(=O)(SCC(=O)N1CCCC(C)C1)SCC(C)C` (stereo not drawn) [Compound 28], the Mortality in the data set with nematode turned out to be 100%.

In turn, `C#CCSP(=O)(OCC)SCC(=O)N1CCCCC1C` (stereo not drawn) [Compound 33] returned a Mortality in the data set with nematode of 100%.

Consider `CCOP(=O)(SCC(=O)N1CCCCC1C)SCc1ccc(C)cc1` (stereo not drawn) [Compound 52], for which the “Herbicidal effect, barnyard grass” value in data set [1] (10 g./a.), in [1] (20 g./a.) and in data set [1] (40 g./a.) was 5 throughout. The “Herbicidal effect, large crabgrass” value in data set [2] (10 g./a.), in data set [2] (20 g./a.) and in [2] (40 g./a.) was 5 throughout. The “Herbicidal effect, radish” value in the data set with radish (10 g./a.), with radish (20 g./a.) and in the data set on radish (40 g./a.) was 0 throughout. Also, the “Herbicidal effect, redroot pigweed” value is recorded as 4 in data set [3] (10 g./a.), 4 in data set [3] (20 g./a.) and 5 in data set [3] (40 g./a.). Besides, the “Herbicidal effect, common purslane” value in data set [4] (10 g./a.) was 3; in data set [4] (20 g./a.), 4; in data set [4] (40 g./a.), 5. The “Herbicidal effect, common lambsquarter” value is reported as 3 in data set [5] (10 g./a.), 4 in data set [5] (20 g./a.) and 5 in data set [5] (40 g./a.). For the same compound, the Phytotoxicity on rice in the data set on rice (10 g/a), in the data set on rice (20 g/a) and with rice (40 g/a) was 0 throughout. For the same compound, in the data set with nematode, the Mortality is 85.7%. Further, the “Herbicidal effects, barnyard grass” value in data set [6] (10 g/a), in data set [6] (20 g/a) and in [6] (40 g/a) was 5 in each case. Also, the “Herbicidal effects, broad-leaved weeds” value in data set [7] (10 g/a), in data set [7] (20 g/a) and in data set [7] (40 g/a) was 5 each time.

On to `CCOP(=O)(SCC(=O)N1CCCCC1CC)SCc1ccc(Br)cc1` (stereo not drawn) [Compound 57], for which the Mortality with nematode is reported as 91.0%.

Turning to `CCCCOP(=O)(SCCC(C)C)SCC(=O)N1CCCCC1CC` (stereo not drawn) [Compound 99], the results for the “Herbicidal effect, barnyard grass” value in data set [1] (10 g./a.), in data set [1] (20 g./a.) and in [1] (40 g./a.) were 4, 5 and 5, respectively. Further, the “Herbicidal effect, large crabgrass” value in [2] (10 g./a.), in data set [2] (20 g./a.) and in [2] (40 g./a.) was 5 in each case. The “Herbicidal effect, radish” value with radish (10 g./a.), in the data set on radish (20 g./a.) and in the data set on radish (40 g./a.) was 0 in each case. In addition, the “Herbicidal effect, redroot pigweed” value in data set [3] (10 g./a.) stood at 4; in data set [3] (20 g./a.), 5; in data set [3] (40 g./a.), 5. For the same compound, the “Herbicidal effect, common purslane” value in [4] (10 g./a.), in data set [4] (20 g./a.) and in data set [4] (40 g./a.) was 5 in each case. For the same compound, the “Herbicidal effect, common lambsquarter” value in data set [5] (10 g./a.), in data set [5] (20 g./a.) and in data set [5] (40 g./a.) was 5 each time. The Phytotoxicity on rice in the data set with rice (10 g/a), in the data set with rice (20 g/a) and in the data set with rice (40 g/a) was 0 each time. Further, the “Herbicidal effects, barnyard grass” value in [6] (10 g/a), in data set [6] (20 g/a) and in [6] (40 g/a) was 5 in each case. For the same compound, the “Herbicidal effects, broad-leaved weeds” value in data set [7] (10 g/a), in [7] (20 g/a) and in data set [7] (40 g/a) was 5 each time.

Regarding `CCOP(=O)(SCC)SCC(=O)N1CCC(C)CC1` (stereo not drawn) [Compound 100], the “Herbicidal effect, barnyard grass” value in [1] (10 g./a.) is on record as 4; in data set [1] (20 g./a.), 5; in [1] (40 g./a.) it was 5. Besides, the “Herbicidal effect, large crabgrass” value in data set [2] (10 g./a.), in data set [2] (20 g./a.) and in data set [2] (40 g./a.) was 5 each time. Also, the figures for the “Herbicidal effect, radish” value with radish (10 g./a.), with radish (20 g./a.) and in the data set with radish (40 g./a.) were 0, 0 and 1, respectively. Further, the “Herbicidal effect, redroot pigweed” value in data set [3] (10 g./a.) came out at 4; in data set [3] (20 g./a.), 4; in data set [3] (40 g./a.), 5. The entries for the “Herbicidal effect, common purslane” value in [4] (10 g./a.), in [4] (20 g./a.) and in data set [4] (40 g./a.) were 3, 4 and 5, respectively. Besides, the “Herbicidal effect, common lambsquarter” value in [5] (10 g./a.) was found to be 3; in [5] (20 g./a.), 4; in data set [5] (40 g./a.), 5. In addition, the Phytotoxicity on rice with rice (10 g/a), in the data set on rice (20 g/a) and in the data set on rice (40 g/a) was 0 in each case. The “Herbicidal effects, barnyard grass” value in data set [6] (10 g/a), in data set [6] (20 g/a) and in [6] (40 g/a) was 5 in each case. The “Herbicidal effects, broad-leaved weeds” value in [7] (10 g/a), in data set [7] (20 g/a) and in data set [7] (40 g/a) was 5 throughout.

With `ClC=CCCl` [Dichloropropene, reference compound], the Mortality with nematode came to 79.3%.
